According to US12687780B2, “Curable water-based composition, active-energy-ray-curable water-based composition, active-energy-ray-curable water-based ink, stored container, two-dimensional or three-dimensional image forming apparatus, two-dimensional or three-dimensional image forming method, cured product, and decorated body” (Ricoh Company, Ltd., priority 2021, dated 2026):

assay: Skin sensitivity: stimulation index (SI) value by the LLNA method (OECD test guideline 429); assay type: in vivo; details: stimulation index of the single compound (raw material)

With `C=CC(=O)NCC(=O)OCC` [Example A1-3, N-acryloylglycine ethyl ester] as the compound, how does the SI value read?
The SI value was “(see Synthesis example 3) SI = 1.21”.

For `C=CC(=O)N(C)CC(=O)OC` [Example A2-1, N-acryloyl-N-methyl glycine methyl ester], which SI value is on record?
Its SI value is “(see Synthesis example 7) SI = 1.00”.

For `C=CC(=O)NCCN(CCNC(=O)C=C)C(=O)C=C` [Example B1-3], which SI value is on record?
Its SI value is ““FOM-03007” obtained from FUJIFILM Corporation SI = 1.44”.

Which SI value does the source give for `C=CC(=O)NC(C)C(=O)OC` (stereo not shown) [Example A1-6, N-acryloyl alaninemethyl ester] here?
Its SI value is “(see Synthesis example 6) SI = 1.37”.

Which SI value does the source give for `C=CC(=O)NCCCC(=O)OC` [Example A1-5, N-acryloyl-4-butyric acid methyl ester] here?
Its SI value is “(see Synthesis example 5) SI = 1.45”.

Which SI value does the source give for `C=CC(=O)N1CCC(C(=O)OCC)CC1` [Example A2-5, ethyl N-acryloylpiperidine-4-carboxylate] here?
The SI value was “(see Synthesis example 10) SI = 1.70”.

Which SI value does the source give for `C=CC(=O)NCCN(CCN(CCNC(=O)CC)C(=O)C=C)C(=O)C=C` [Example B1-4] here?
The SI value was ““FOM-03009” obtained from FUJIFILM Corporation SI = 1.52”.

With `C=CC(=O)NCC(=O)OC` [Example A1-2, N-acryloylglycine methyl ester] as the compound, how does the SI value read?
Its SI value is “(see Synthesis example 2) SI = 1.01”.

For `C=CC(=O)NCCNC(=O)C=C` [Example B1-2], which SI value is on record?
Its SI value is “SI = 1.23”.

With `C=CC(=O)NCNC(=O)C=C` [Example B1-1] as the compound, how does the SI value read?
The SI value was “SI = 1.08”.
